Here are results for 1 substance from patent US11642359B2, “Nutritional composition for improving intestinal barrier integrity, preparation of the composition and method of treatment” (priority 2018, dated 2023).

The assay concerns alpha-1 antitrypsin (A1AT) in the gut wash. The experiment in a line: A1AT in the gut wash by ELISA as marker of intestinal permeability / barrier disruption in rotavirus-infected suckling rats. Type of assay: in vivo, rat. As to conditions: compared to both the RV and REF groups (p<0.05), 3rd day of the diarrheal period (peak of diarrhea). On the procedure: Newborn rats were distributed into five groups of 24 animals each: the reference (REF) group, rotavirus-infected (RV) group, and 3 rotavirus-infected groups supplemented with: a) a mixture of scGOS and lcFOS (RV+GOS/FOS group); b) 2′-FL (RV+2′-FL group); and c) both scGOS/lcFOS and 2′-FL (RV+GOS/FOS+2′-FL group).
Suckling rats were orally administered once daily with the same normalized volume/body weight of all products (4.5 μL/g/day), from the second to the sixteenth day of life, corresponding to the strict lactation period. The RV+GOS/FOS group was supplemented with 0.8 g of scGOS/lcFOS/100 g of body weight. The RV+2′-FL group was supplemented with 0.2 g of 2′-FL/100 g of body weight. The RV+GOS/FOS+2′-FL group received both products at the same doses as when given separately and maintaining the volume of administration (4.5 μL/g/day). The REF and RV groups were administered with a matched volume of water. […]
The quantification of A1AT in the gut wash, as a marker of intestinal permeability, was performed with the rat SERPINA1/Alpha 1 Antitrypsin ELISA kit (LifeSpan Biosciences Inc., Seattle, Wash., USA) following the manufacturer's instructions. […]

With 2′-fucosyllactose [2′-FL], the “concentration of A1AT in the gut wash” value is given as “reduced”. Moreover, the “concentration of A1AT in the gut wash” value (listed as 2′-fucosyllactose) was “significant reduction”.
